Test results as given in ChEMBL document CHEMBL1909514, “Imidazo[2,1-b]thiazole guanylhydrazones as RSK2 inhibitors” (Eur J Med Chem, 2011).
Activity calls are given as the source filed them. No rule for the calls is given here.

Key:
[1] = system: MDA-MB-231; test: Growth inhibition of human MDA-MB-231 cells after 48 hrs by SRB assay; type: functional; conditions: MDA-MB-231, 48 h
[2] = Growth inhibition of human Hs 578T cells after 48 hrs by SRB assay; type: functional
[3] = system: MOLT-4; test: Growth inhibition of human MOLT4 cells after 48 hrs by SRB assay; type: functional; conditions: MOLT-4, 48 h
[4] = Growth inhibition of human OVCAR1 cells after 48 hrs by SRB assay; type: functional; conditions: OVCAR1, 48 h
[5] = system: HCT-116; test: Growth inhibition of human HCT116 cells after 48 hrs by SRB assay; type: functional; conditions: HCT-116, 48 h
[6] = system: 786-0; test: Growth inhibition of human 786-0 cells after 48 hrs by SRB assay; type: functional; conditions: 786-0, 48 h
[7] = molecular target: Serine/threonine-protein kinase Chk2 (Homo sapiens, UniProt O96017)
Sequence of Serine/threonine-protein kinase Chk2 (O96017 whole entry): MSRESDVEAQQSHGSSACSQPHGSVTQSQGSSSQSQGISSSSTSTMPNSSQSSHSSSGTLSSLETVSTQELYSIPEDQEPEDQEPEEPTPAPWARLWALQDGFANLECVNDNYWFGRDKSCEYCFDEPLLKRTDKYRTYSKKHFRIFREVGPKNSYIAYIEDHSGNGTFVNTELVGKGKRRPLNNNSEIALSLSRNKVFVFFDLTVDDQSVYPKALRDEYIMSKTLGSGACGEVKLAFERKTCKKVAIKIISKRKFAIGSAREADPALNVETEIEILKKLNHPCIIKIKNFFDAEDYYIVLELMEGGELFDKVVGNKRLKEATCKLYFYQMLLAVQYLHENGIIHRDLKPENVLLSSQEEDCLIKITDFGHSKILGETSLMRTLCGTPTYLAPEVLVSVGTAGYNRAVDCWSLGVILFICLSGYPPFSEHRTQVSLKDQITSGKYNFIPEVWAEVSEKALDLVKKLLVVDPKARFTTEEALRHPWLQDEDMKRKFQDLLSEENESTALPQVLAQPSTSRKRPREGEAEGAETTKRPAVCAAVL
Description: Inhibition of CHK2 assessed as inhibition of substrate phosphorylation using fluorescent peptide substrate by microplate reader assay

[8] = system: CCRF-CEM; test: Growth inhibition of human CCRF-CEM cells after 48 hrs by SRB assay; type: functional
[9] = system: EKVX; test: Growth inhibition of human EKVX cells after 48 hrs by SRB assay; type: functional
[10] = system: U-251; test: Growth inhibition of human U251 cells after 48 hrs by SRB assay; type: functional; conditions: U-251, 48 h
[11] = system: DU-145; test: Growth inhibition of human DU145 cells after 48 hrs by SRB assay; type: functional; conditions: DU-145, 48 h
[12] = system: RPMI-8226; test: Growth inhibition of human RPMI8226 cells after 48 hrs by SRB assay; type: functional; conditions: RPMI-8226, 48 h
[13] = molecular target: T1, Ribosomal protein S6 kinase alpha-3 (Homo sapiens, UniProt P51812)
T1 sequence (P51812 whole entry): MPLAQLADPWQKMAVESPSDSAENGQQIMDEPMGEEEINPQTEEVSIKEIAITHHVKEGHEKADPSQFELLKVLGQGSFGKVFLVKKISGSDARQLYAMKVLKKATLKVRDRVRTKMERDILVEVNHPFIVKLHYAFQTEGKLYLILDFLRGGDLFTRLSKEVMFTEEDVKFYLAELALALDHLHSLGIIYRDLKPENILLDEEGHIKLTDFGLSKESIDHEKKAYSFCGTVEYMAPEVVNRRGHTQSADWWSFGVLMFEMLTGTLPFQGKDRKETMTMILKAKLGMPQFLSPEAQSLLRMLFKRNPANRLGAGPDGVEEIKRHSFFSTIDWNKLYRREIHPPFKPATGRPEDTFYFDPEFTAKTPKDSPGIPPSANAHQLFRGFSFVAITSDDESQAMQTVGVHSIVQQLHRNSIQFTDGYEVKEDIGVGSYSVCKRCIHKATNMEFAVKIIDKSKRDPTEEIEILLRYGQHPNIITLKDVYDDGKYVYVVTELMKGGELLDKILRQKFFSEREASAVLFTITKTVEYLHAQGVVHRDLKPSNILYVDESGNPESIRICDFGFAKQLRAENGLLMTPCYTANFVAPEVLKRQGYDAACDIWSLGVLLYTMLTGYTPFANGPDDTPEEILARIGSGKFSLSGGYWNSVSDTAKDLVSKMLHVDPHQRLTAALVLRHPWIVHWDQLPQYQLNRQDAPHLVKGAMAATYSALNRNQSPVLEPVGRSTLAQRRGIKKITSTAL
Description: Inhibition of RSK2 assessed as inhibition of substrate phosphorylation using fluorescent peptide substrate by microplate reader assay

[14] = molecular target: Aurora kinase A (Homo sapiens, UniProt O14965)
[15] = system: HOP-62; test: Growth inhibition of human HOP62 cells after 48 hrs by SRB assay; type: functional; conditions: HOP-62, 48 h
[16] = molecular target: T2, Aurora kinase A (Homo sapiens) (UniProt O14965); test: Inhibition of Aurora kinase A assessed as inhibition of substrate phosphorylation using fluorescent peptide substrate up to 100 uM by microplate reader assay
T2 sequence (whole entry): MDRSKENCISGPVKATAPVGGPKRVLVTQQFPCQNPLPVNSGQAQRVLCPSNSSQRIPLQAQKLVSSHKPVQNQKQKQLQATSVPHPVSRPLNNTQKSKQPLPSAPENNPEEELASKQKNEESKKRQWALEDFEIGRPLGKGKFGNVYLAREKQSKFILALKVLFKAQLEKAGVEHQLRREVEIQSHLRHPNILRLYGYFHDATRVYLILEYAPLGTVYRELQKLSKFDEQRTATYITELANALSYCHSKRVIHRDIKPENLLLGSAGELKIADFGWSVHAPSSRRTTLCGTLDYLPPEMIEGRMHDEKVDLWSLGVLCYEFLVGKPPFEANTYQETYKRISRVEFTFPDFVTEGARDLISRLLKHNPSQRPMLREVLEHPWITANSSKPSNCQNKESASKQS

[17] = system: OVCAR-5; test: Growth inhibition of human OVCAR5 cells after 48 hrs by SRB assay; type: functional; conditions: OVCAR-5, 48 h
[18] = molecular target: T1, Ribosomal protein S6 kinase alpha-3; remark: listed apart in the source
[19] = system: NCI-H226; test: Growth inhibition of human NCI-H226 cells after 48 hrs by SRB assay; type: functional; conditions: NCI-H226, 48 h
[20] = system: OVCAR-4; test: Growth inhibition of human OVCAR4 cells after 48 hrs by SRB assay; type: functional; conditions: OVCAR-4, 48 h
[21] = molecular target: T3, Serine/threonine-protein kinase Chk1 (Homo sapiens, UniProt O14757)
T3 sequence (O14757 whole entry): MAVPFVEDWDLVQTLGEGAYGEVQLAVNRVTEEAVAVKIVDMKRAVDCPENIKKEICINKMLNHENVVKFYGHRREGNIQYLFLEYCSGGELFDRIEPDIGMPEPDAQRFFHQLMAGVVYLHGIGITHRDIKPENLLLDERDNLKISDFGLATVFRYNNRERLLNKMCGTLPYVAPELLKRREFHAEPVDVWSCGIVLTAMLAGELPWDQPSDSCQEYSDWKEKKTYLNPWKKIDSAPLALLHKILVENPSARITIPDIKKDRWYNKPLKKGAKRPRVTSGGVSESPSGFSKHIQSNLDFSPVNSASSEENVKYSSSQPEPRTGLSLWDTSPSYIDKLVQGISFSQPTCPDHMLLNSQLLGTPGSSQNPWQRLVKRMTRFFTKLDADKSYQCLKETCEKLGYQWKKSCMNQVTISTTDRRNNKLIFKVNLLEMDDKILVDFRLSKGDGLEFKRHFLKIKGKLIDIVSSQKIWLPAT
Description: Inhibition of CHK1 assessed as inhibition of substrate phosphorylation using fluorescent peptide substrate by microplate reader assay

[22] = system: COLO 205; test: Growth inhibition of human COLO205 cells after 48 hrs by SRB assay; type: functional; conditions: COLO 205, 48 h
[23] = system: BT-549; test: Growth inhibition of human BT549 cells after 48 hrs by SRB assay; type: functional; conditions: BT-549, 48 h
[24] = system: SK-MEL-28; test: Growth inhibition of human SK-MEL-28 cells after 48 hrs by SRB assay; type: functional; conditions: SK-MEL-28, 48 h
[25] = system: MDA-MB-468; test: Growth inhibition of human MDA-MB-468 cells after 48 hrs by SRB assay; type: functional; conditions: MDA-MB-468, 48 h
[26] = system: Malme-3M; test: Growth inhibition of human MALME-3M cells after 48 hrs by SRB assay; type: functional
[27] = system: HCT-15; test: Growth inhibition of human HCT15 cells after 48 hrs by SRB assay; type: functional; conditions: HCT-15, 48 h
[28] = read-out: pLC50 (the source's name) (converted)

N=C(N)N/N=C\c1c(-c2ccc([N+](=O)[O-])cc2)nc2sc(Br)cn12
GI50 [1]: 275 nM | CC50 [1, 28]: 3890 nM | TGI ([1]; read-out: pTGI (converted)): 851 nM | GI50 [2]: 288 nM | CC50 [2, 28]: 3470 nM | TGI ([2]; read-out: pTGI (converted)): 933 nM | GI50 [3]: 195 nM | GI50 [4]: 186 nM | CC50 [4, 28]: 661 nM | TGI ([4]; read-out: pTGI (converted)): 347 nM | GI50 [5]: 166 nM | CC50 [5, 28]: 832 nM | TGI ([5]; read-out: pTGI (converted)): 302 nM | GI50 [6]: 174 nM | CC50 [6, 28]: 575 nM | TGI ([6]; read-out: pTGI (converted)): 316 nM | IC50 [7]: 88500 nM | GI50 [8]: 102 nM | CC50 [8, 28]: > 100000 nM | GI50 [9]: 1070 nM | CC50 [9, 28]: 7410 nM | TGI ([9]; read-out: pTGI (converted)): 4470 nM | GI50 [10]: 195 nM | CC50 [10, 28]: > 100000 nM | GI50 [11]: 200 nM | CC50 [11, 28]: 813 nM | TGI ([11]; read-out: pTGI (converted)): 398 nM | GI50 [12]: 178 nM | TGI ([12]; read-out: pTGI (converted)): 417 nM | IC50 [13]: 1230 nM | IC50 [14]: > 20000 nM | GI50 [15]: 191 nM | CC50 [15, 28]: 851 nM | TGI ([15]; read-out: pTGI (converted)): 3980 nM | inhibition [16]: inactive | GI50 [17]: 186 nM | CC50 [17, 28]: 851 nM | TGI ([17]; read-out: pTGI (converted)): 398 nM | IC50 [18]: 607 nM | GI50 [19]: 1860 nM | CC50 [19, 28]: > 100000 nM | TGI ([19]; read-out: pTGI (converted)): 4470 nM | GI50 [20]: 191 nM | CC50 [20, 28]: 776 nM | TGI ([20]; read-out: pTGI (converted)): 380 nM | IC50 [21]: > 100000 nM | GI50 [22]: 166 nM | CC50 [22, 28]: 646 nM | TGI ([22]; read-out: pTGI (converted)): 331 nM | GI50 [23]: 186 nM | CC50 [23, 28]: 7240 nM | TGI ([23]; read-out: pTGI (converted)): 3630 nM | GI50 [24]: 191 nM | CC50 [24, 28]: 676 nM | TGI ([24]; read-out: pTGI (converted)): 363 nM | GI50 [25]: 158 nM | CC50 [25, 28]: 646 nM | TGI ([25]; read-out: pTGI (converted)): 3240 nM | GI50 [26]: 1000 nM | TGI ([26]; read-out: pTGI (converted)): 4170 nM | GI50 [27]: 302 nM | CC50 [27, 28]: > 100000 nM | TGI ([27]; read-out: pTGI (converted)): 26900 nM
